Source: PMC7434893 (British Journal of Cancer, 2020)
Values after ≈ are worked out from the molar mass of the structure shown. Values joined by “and” are separate entries in the source; they are usually repeats but may differ in a detail not shown here. Identical values can stand only once.

Columns and labels:
DU145 = assay: 8-day growth inhibition; assay type: cell-based; conditions: Prostate, DU145, 8-day assay
T47D = assay: 8-day growth inhibition; assay type: cell-based; conditions: Breast, 8-day assay
PARP = assay: Sigmoidal inhibitory indirect-response PK/PD model of PAR formation; assay type: in vivo, human; conditions: model estimate
Method: The PD measurement utilised in the PK/PD model was the percentage inhibition of the formation of PAR, a marker for PARP activity,[19] which was calculated as % inhibition = […], where baseline was defined as the PAR response at time 0 on day –2.
The model parameters from the PK/PD analysis were then used to simulate the expected PAR responses of additional dosing regimens of E7449. All PK/PD modelling and subsequent response simulations were performed using Phoenix WinNonlin®, version 7.

MDA-MB-231 = assay: 8-day growth inhibition; assay type: cell-based; conditions: Breast, MDA-MB-231, 8-day assay
NCI-H524 = assay: 8-day growth inhibition; assay type: cell-based; conditions: SCLC, NCI-H524, 8-day assay
K562 = assay: 8-day growth inhibition; assay type: cell-based; conditions: Erythroleukemia from CML patient, K562, 8-day assay
MV-4-11 = assay: 8-day growth inhibition; assay type: cell-based; conditions: AML, MV-4-11, 8-day assay
SNG-ll = assay: 8-day growth inhibition; assay type: cell-based; conditions: Endometrial, 8-day assay
[1] = system: human colon cancer SW480 cells; conditions: cited from earlier work
HEC-1B = assay: 8-day growth inhibition; assay type: cell-based; conditions: Endometrial, 8-day assay
Toledo = assay: 8-day growth inhibition; assay type: cell-based; conditions: DLBCL (GC), 8-day assay
NCI-H82 = assay: 8-day growth inhibition; assay type: cell-based; conditions: SCLC, NCI-H82, 8-day assay
KG-1 = assay: 8-day growth inhibition; assay type: cell-based; conditions: AML, KG-1, 8-day assay
Jeko-1 = assay: 8-day growth inhibition; assay type: cell-based; conditions: MCL, Jeko-1, 8-day assay
HEC-251 = assay: 8-day growth inhibition; assay type: cell-based; conditions: Endometrial, HEC-251, 8-day assay
Namalwa = assay: 8-day growth inhibition; assay type: cell-based; conditions: Burkitt's lymphoma, 8-day assay
HEC-50B = assay: 8-day growth inhibition; assay type: cell-based; conditions: Endometrial, 8-day assay
HT = assay: 8-day growth inhibition; assay type: cell-based; conditions: DLBCL (GC), 8-day assay
sIL-2Rα/CD25 = assay: Serum biomarker analysis, sIL-2Rα; assay type: in vivo, human; conditions: from 48 h onwards, all dose groups
Method: (§1) Two pre-dose, multiple post-dose and off-treatment time points were included. Serum samples were tested for concentrations of soluble vascular endothelial growth factor receptor (VEGFR)2, VEGFR3 and soluble interleukin-2 receptor α (sIL-2Rα/CD25), using the bead-based Human Soluble Cytokine Receptor Panel assay kit. The two baseline samples (days −3 and −2 prior to dosing) were averaged, and the mean was used to calculate percent change at each of the post-dosing time points.

SNG-M = assay: 8-day growth inhibition; assay type: cell-based; conditions: Endometrial, 8-day assay
U266 = assay: 8-day growth inhibition; assay type: cell-based; conditions: Myeloma, U266, 8-day assay
MDA-MB-468 = assay: 8-day growth inhibition; assay type: cell-based; conditions: Breast, MDA-MB-468, 8-day assay
MDA-MB-436 = assay: 8-day growth inhibition; assay type: cell-based; conditions: Breast, MDA-MB-436, 8-day assay
HL-60 = assay: 8-day growth inhibition; assay type: cell-based; conditions: Promyelocytic leukemia, HL-60, 8-day assay
[2] = Food-effect pharmacokinetics, expansion cohort; assay type: in vivo, human; conditions: for Cmax / AUC(0-24h) / AUC(0-inf) / AUC(0-t) / Rac / t1/2 / tmax: 600 mg; for Cmax / AUC(0-24h) / AUC(0-inf) / AUC(0-t) / Rac / t1/2: mean (SD); for tmax: median (min, max)
Method: Fed patients were administered E7449 immediately after consuming a meal. Patients were then crossed over to the alternate food regimen on day 15.

MDA-MB-453 = assay: 8-day growth inhibition; assay type: cell-based; conditions: Breast, MDA-MB-453, 8-day assay
NCI-H209 = assay: 8-day growth inhibition; assay type: cell-based; conditions: SCLC, NCI-H209, 8-day assay
DB = assay: 8-day growth inhibition; assay type: cell-based; conditions: DLBCL (GC), 8-day assay
NCI-H929 = assay: 8-day growth inhibition; assay type: cell-based; conditions: Myeloma, NCI-H929, 8-day assay
HCT-15 = assay: 8-day growth inhibition; assay type: cell-based; conditions: Colon, HCT-15, 8-day assay
U937 = assay: 8-day growth inhibition; assay type: cell-based; conditions: Histiocytic lymphoma - monocytic, U937, 8-day assay
RL95-2 = assay: 8-day growth inhibition; assay type: cell-based; conditions: Endometrial, RL95-2, 8-day assay
RL = assay: 8-day growth inhibition; assay type: cell-based; conditions: NHL B cell lymphoma, 8-day assay
sVEGFR2 = assay: Serum biomarker analysis, sVEGFR2; assay type: in vivo, human; conditions: data not shown
Method: as §1

sVEGFR3 = assay: Serum biomarker analysis, sVEGFR3; assay type: in vivo, human; conditions: data not shown
Method: as §1

MFE-296 = assay: 8-day growth inhibition; assay type: cell-based; conditions: Endometrial, MFE-296, 8-day assay

Molecule `O=c1[nH]nc2c3c(cccc13)N=C(CN1Cc3ccccc3C1)N2` [E7449] has an IC50 (DU145) of 1800 nM, an IC50 (T47D) of 7800 nM and a kout (PARP) of 0.52 h⁻¹. It also gave an EC50 (PARP; plasma concentration, inhibition of PAR formation in PBMCs) of 0.11 µg/mL (≈ 0.347 µM), a kin (PARP; rate of formation of PAR) of 35.5 h⁻¹ and an IC50 (MDA-MB-231) of 25000 nM. The IC50 (NCI-H524) was 690 nM, the IC50 (K562) was 4300 nM and the IC50 (MV-4-11) was 950 nM. For the same molecule, the IC50 (SNG-ll) was 5260 nM, the “Active and total β-catenin” value [1] was “concomitant reduction” and the Axin2 levels [1] was “significant increase”. The IC50 (HEC-1B) was 7270 nM, the IC50 (Toledo) was 1600 nM and the IC50 (NCI-H82) was 470 nM. For the same molecule, the IC50 (KG-1) was 2000 nM, the IC50 (Jeko-1) was 1900 nM and the IC50 (HEC-251) was 1260 nM. For the same molecule, the IC50 (Namalwa) was 2500 nM, the IC50 (HEC-50B) was 3450 nM and the IC50 (HT) was 660 nM. For the same molecule, the “sIL-2Rα change above baseline” value (sIL-2Rα/CD25) was “up to 150%”, the IC50 (SNG-M) was 1360 nM and the IC50 (U266) was 6700 nM. It also gave an IC50 (MDA-MB-468) of 2500 nM, an IC50 (MDA-MB-436) of 190 nM and an IC50 (HL-60) of 10300 nM. For the same molecule, the Cmax ([2]; fasted (n=10)) was 1470 (697) ng/mL, the “AUC(0-24h)” value ([2]; fasted) was 5510 (1730) (n=9) ng·h/mL and the “AUC(0-inf)” value ([2]; fasted) was 4480 (1850) (n=2) ng·h/mL. For the same molecule, the “AUC(0-t)” value ([2]; fasted) was 5310 (1780) (n=10) ng·h/mL, the Rac ([2]; fasted) was 1.07 (0.03) (n=2) and the t1/2 ([2]; fasted) was 6.11 (0.74) (n=2) h. The tmax ([2]; fasted) was 2.01 (0.97, 3.00) h, the Cmax ([2]; fed (n=11)) was 863 (563) ng/mL and the “AUC(0-24h)” value ([2]; fed) was 6150 (3280) ng·h/mL. For the same molecule, the “AUC(0-inf)” value ([2]; fed) was 6600 (1430) (n=5) ng·h/mL, the “AUC(0-t)” value ([2]; fed) was 6150 (3270) ng·h/mL and the Rac ([2]; fed) was 1.08 (0.12) (n=5). For the same molecule, the t1/2 ([2]; fed) was 5.64 (3.17) (n=5) h, the tmax ([2]; fed) was 4.05 (1.07, 8.18) h and the “Increase in AUC (0–24 h or 0-t) with a high-fat meal” value ([2]; 600-mg dose) was ~ 10% and 10%. The “Reduction in Cmax with a high-fat meal” value ([2]; 600-mg dose) was 60%, the IC50 (MDA-MB-453) was 6200 nM and the IC50 (NCI-H209) was 620 nM. For the same molecule, the IC50 (DB) was 1600 nM, the IC50 (NCI-H929) was 5200 nM and the IC50 (HCT-15) was 2200 nM. The IC50 (U937) was 2700 nM, the IC50 (RL95-2) was 2130 nM and the IC50 (RL) was 2500 nM. For the same molecule, the “Change in serum concentration of sVEGFR2 from baseline” value (sVEGFR2) was “No significant changes”, the “Change in serum concentration of sVEGFR3 from baseline” value (sVEGFR3) was “No significant changes” and the IC50 (MFE-296) was 670 nM.
